From patent publication US5369112A, “Method of treating cataracts caused by active oxygen” (Mitsubishi Gas Chemical Company, Inc., priority 1991, dated 1994)
Where two headings read alike, the source gives them in different places.

Key:
[1] = Superoxide scavenging activity (hypoxanthine-xanthine oxidase, DMPO spin trapping, ESR); assay type: biochemical; details: pH 7.3, read-out: O2^- scavenging activity IC50
Text: Activity of PQQ esters to scavenge superoxide (O2^-) produced in the system of hypoxanthinexanthine oxidase was examined by spin trapping method [using 5,5-dimethyl-l-pyrroline-N-oxide (hereinafter referred to as "DMPO") as a spin trapping agent] where electron spin resonance (hereinafter referred to as "ESR") was used.
Hypoxanthine+2O2 →2O2^- +uric acid (xanthine oxidase)
The following reagents were successively put in a test tube and stirred after addition of the hypoxanthine 7 to initiate the reaction and the reaction mixture was transferred to a quartz cell used for measurement of ESR.
Superoxide scavenging activity of OPQ and esters thereof was examined in the same manner as in Example 1.

[2] = system: Hydrocortisone-Induced Cataract of Hen's Eggs; test: Effect on hydrocortisone-induced cataract of hen's eggs; assay type: in vivo, white leghorn (hen's eggs); details: 1 μmole at 3, 10 and 20 h after hydrocortisone; lens at 48 h
Protocol: Fertilized eggs of white leghorn were incubated in an incubator at a temperature of 37° C. and 70% in humidity. The day on which the incubation was started was taken to be one day old. […] eggs of 15 day old were prepared and divided into 7 groups, each of which included 5 eggs (A-G). A small hole was bored through the eggshell above air chamber of the eggs of groups B-G and 0.25 μmole (as 0.2 ml solution) of hydrocortisone sodium succinate was administered into the air chamber through the hole and then, the hole was sealed with a cellophane tape. To The eggs of groups C-G was administered 1 μmole of following compounds after 3, 10 and 20 hours from administration of hydrocortisone sodium succinate. That is, 0.2 ml of a solution of PQQ·2Na in distilled water was administered to the eggs of group C, 0.2 ml of a suspension of PQQ trimethyl ester in 1% Tween 80 solution was administered to the eggs of group D, 0.2 ml of a suspension of triallyl ester in 1% Tween 80 solution was administered to the eggs of group E, 0.2 ml of a solution of OPQ in 10 mM NaCO3 solution was administered to the eggs of group F, and 0.2 ml of a solution of methyl OPQ in 10 mM NaCO3 solution was administered to the eggs of group G.
Crystal lens was taken out after 48 hours from administration of hydrocortisone sodium succinate and degree of cataract was judged by the criteria according to the Nishigori et al method (Nishigori et al, "Investigative Ophthalmology & Visual Science", Vol. 25, page 1051, 1984).
5 The whole nucleus was hazed in white.

[3] = Hydroxy radical scavenging activity (H2O2-(Fe^2+-DTPA), DMPO spin trapping, ESR); assay type: biochemical; details: pH 7.3, read-out: .OH scavenging activity IC50
Text: Activity of PQQ esters to scavenge hydroxy radical (·OH) produced in the system of H2 O2 --(Fe^2+ -DTPA) was examined by spin trapping method [using 5,5-dimethyl-1-pyrroline-N-oxide (hereinafter referred to as "DMPO") as a spin trapping agent] where electron spin resonance (hereinafter referred to as "ESR") was used. DTPA means diethylenetriamine-pentaacetic acid.
H2 O2 +Fe^2 -DTPA complex→·OH+OH^-
The following reagents were successively put in a test tube and stirred after addition of H2 O2 6 to initiate the reaction and the reaction mixture was transferred to a quartz cell used for measurement of ESR.
Hydroxy radical scavenging activity of OPQ and esters thereof was examined in the same manner as in Example 3.

[4] = bovine, not told, 960 min
Protocol: Permeability of various compounds through capsule of crystal bovine lens was examined in accordance with the method mentioned in "Crystal Lens and Biochemical Mechanism thereof" (pages 436-440) edited by Shuzo Iwata (Medical Aoi Publisher). Each compound dissolved in 10 mM HEPES buffer (containing 1% DMSO in the case of PQQ triesters) was put in an apparatus for measurement of membrane permeation constant and left to stand for 16 hours at 35° C. and then amount of the compound which migrated was measured by ultraviolet absorption (243 nm for PQQ·2Na and 255 nm for PQQ esters) to obtain membrane permeation constant.

male mice SPF-ICR = test: Acute toxicity test (1), intraperitoneal; details: mouse, in vivo, ip
Protocol: To male mice SPF-ICR five weeks old (supplied by Japan Charles River Co.) were intraperitoneally administered PQQ·2Na, PQQ trimethyl ester, PQQ triallyl ester, OPQ, 1-methylpropyl OPQ, 2-methylthioethyl OPQ and benzyl OPQ at dosages of 40, 80, 160 and 200 mg per kg of body weight of mouce, respectively and they were bred for 14 days at 25° C. One group consisted of 8 mice. For administration, PQQ·2Na and OPQ and esters thereof were dissolved in physiological saline and PQQ trimethyl ester and PQQ triallyl ester were suspended in 1% Tween 80-containing physiological saline, respectively.

mice [5] = details: mouse, in vivo, ip
Protocol: One group consisted of 8 mice. For administration, PQQ·2Na and OPQ and esters thereof were dissolved in physiological saline and PQQ trimethyl ester and PQQ triallyl ester were suspended in 1% Tween 80-containing physiological saline, respectively.
PQQ·2Na, PQQ trimethyl ester, PQQ triallyl ester and OPQ and esters thereof were intraperitoneally administered to mice and they were bred in the same manner as in the above acute toxicity test. Urine of the mice was taken every day and glucose concentration was measured using clinical examination reagent (trademark: […] 2 manufactured by Miles.Sankyo Co.).

mice [6] = test: Kidney Toxicity Determined by Blood Examination (1); assay type: in vivo
Protocol: After lapse of one day from the administration, the mice were fasted (with feeding only water) and then after 18 hours, blood was collected and serum was obtained therefrom. Glucose, urea nitrogen and creatinine in the serum were examined by clinical examination reagent (trademark: FUJI DRYCHEMSLIDE manufactured by Fuji Photo Film Co., Ltd.).

In the case of PQQ dimethyl ester, the IC50 ([1]; Example 1, Table 6) is reported as 0.0106 µM.
In the case of `Cc1nc2c3nc(C(=O)O)cc(C(=O)O)c3c3[nH]c(C(=O)O)cc3c2o1` [Methyl OPQ, methyl OPQ (R=CH3)], the IC50 ([1]; Example 2, Table 7) is reported as 1.64 µM, the “Judgement 1 (No haze was seen in crystal lens), eggs” value [2] is reported as 1/5 and the “Judgement 3 (Clear ring of white haze was seen in crystal lens), eggs” value [2] is reported as 2/5. For the same molecule, the “Judgement 4 ~ 5 (white haze of pinhole size in nucleus ~ whole nucleus hazed in white), eggs” value [2] was 2/5 and the IC50 ([3]; Example 4, Table 9) was 153 µM.
With `O=C(O)c1cc(C(=O)O)c2c(n1)C(=O)C(=O)c1cc(C(=O)O)[nH]c1-2` [PQQ.2Na, reference compound] the Membrane permeation constant [4] was 0.68 ± 0.36 10 ^-7 cm^2 · sec^-1, the mice died (male mice SPF-ICR; 40 mg/kg) was “No mice died” and the mice died (male mice SPF-ICR; 80 mg/kg) was “five mice died”. For the same molecule, the mice died (male mice SPF-ICR; 160 mg/kg) was “eight mice all died”, the mice died (male mice SPF-ICR; 200 mg/kg) was “eight mice all died” and the IC50 ([1]; Example 1, Table 6) was 0.0383 µM. The “Judgement 1 (No haze was seen in crystal lens), eggs” value [2] was 1/5, the “Judgement 2 (Slight opaque ring was seen in crystal lens), eggs” value [2] was 2/5 and the “Judgement 4 ~ 5 (white haze of pinhole size in nucleus ~ whole nucleus hazed in white), eggs” value [2] was 2/5. For the same molecule, the IC50 ([3]; Example 3, Table 8) was 64 µM, the “glucose detected in urine” value (mice [5]) was “glucose was detected in urine” and the glucose in urine (mice [5]; 20 mg/kg) was “-”. For the same molecule, the glucose in urine (mice [5]; 40 mg/kg) was “-”, the glucose in urine (mice [5]; 80 mg/kg) was “-” and the “contents of glucose, urea nitrogen and creatinine in serum” value (mice [6]; mouse, in vivo) was “Sharp reduction of glucose and much increase of urea nitrogen and creatinine”. For the same molecule, the “kidney toxicity” value (mice [6]; mouse, in vivo) was “kidney toxicity was recognized”, the Creatinine (mice [6]; mouse, in vivo, 20 mg/kg) was 0.8 ± 0.1 mg/dL and the Glucose (mice [6]; mouse, in vivo, 20 mg/kg) was 70 ± 13 mg/dL. The Urea nitrogen (mice [6]; mouse, in vivo, 20 mg/kg) was 25 ± 3 mg/dL, the Creatinine (mice [6]; mouse, in vivo, 40 mg/kg) was 2.3 ± 1.0 mg/dL and the Glucose (mice [6]; mouse, in vivo, 40 mg/kg) was 60 ± 12 mg/dL. It also gave a Urea nitrogen (mice [6]; mouse, in vivo, 40 mg/kg) of 110 ± 38 mg/dL, a Creatinine (mice [6]; mouse, in vivo, 80 mg/kg) of 3.4 ± 0.4 mg/dL and a Glucose (mice [6]; mouse, in vivo, 80 mg/kg) of 57 ± 15 mg/dL. The Urea nitrogen (mice [6]; mouse, in vivo, 80 mg/kg) was 130 ± 18 mg/dL, the Creatinine (mice [6]; mouse, in vivo, 160 mg/kg) was 4.1 ± 0.2 mg/dL and the Glucose (mice [6]; mouse, in vivo, 160 mg/kg) was 35 ± 7 mg/dL. For the same molecule, the Urea nitrogen (mice [6]; mouse, in vivo, 160 mg/kg) was 139 ± 3 mg/dL.
In the case of `O=C(O)c1cc(C(=O)O)c2c(n1)c1nc(Cc3ccccc3)oc1c1cc(C(=O)O)[nH]c12` [Benzyl OPQ, benzyl OPQ], the IC50 ([1]; Example 2, Table 7) is reported as 3.01 µM, the IC50 ([3]; Example 4, Table 9) is reported as 211 µM and the glucose in urine (mice [5]; 20 mg/kg) is reported as “-”. The glucose in urine (mice [5]; 40 mg/kg) was “-”, the glucose in urine (mice [5]; 80 mg/kg) was “-” and the glucose in urine (mice [5]; 160 mg/kg) was “-”. The glucose in urine (mice [5]; 200 mg/kg) was “-”, the Creatinine (mice [6]; mouse serum, 40 mg/kg) was 0.68 ± 0.05 mg/dL and the Glucose (mice [6]; mouse serum, 40 mg/kg) was 90 ± 24 mg/dL. For the same molecule, the Urea nitrogen (mice [6]; mouse serum, 40 mg/kg) was 23 ± 3 mg/dL, the Creatinine (mice [6]; mouse serum, 80 mg/kg) was 0.68 ± 0.04 mg/dL and the Glucose (mice [6]; mouse serum, 80 mg/kg) was 87 ± 17 mg/dL. For the same molecule, the Urea nitrogen (mice [6]; mouse serum, 80 mg/kg) was 23 ± 2 mg/dL, the Creatinine (mice [6]; mouse serum, 160 mg/kg) was 0.68 ± 0.08 mg/dL and the Glucose (mice [6]; mouse serum, 160 mg/kg) was 87 ± 21 mg/dL. The Urea nitrogen (mice [6]; mouse serum, 160 mg/kg) was 26 ± 3 mg/dL, the Creatinine (mice [6]; mouse serum, 200 mg/kg) was 0.73 ± 0.05 mg/dL and the Glucose (mice [6]; mouse serum, 200 mg/kg) was 84 ± 18 mg/dL. It also gave a Urea nitrogen (mice [6]; mouse serum, 200 mg/kg) of 25 ± 3 mg/dL.
Work on `C=CCOC(=O)c1cc(C(=O)OCC=C)c2c(n1)c1ncoc1c1cc(C(=O)OCC=C)[nH]c12` [OPQ triallyl ester] yielded an IC50 ([1]; Example 2, Table 7) of 2.39 µM.
Work on `O=C(OCc1ccccc1)c1cc(C(=O)OCc2ccccc2)c2c(n1)C(=O)C(=O)c1cc(C(=O)OCc3ccccc3)[nH]c1-2` [PQQ tribenzyl ester] yielded an IC50 ([1]; Example 1, Table 6) of 0.0769 µM and an IC50 ([3]; Example 3, Table 8) of 31 µM.
Molecule `O=C(O)CCc1nc2c3nc(C(=O)O)cc(C(=O)O)c3c3[nH]c(C(=O)O)cc3c2o1` [2-Carboxyethyl OPQ, 2-carboxyethyl OPQ (R=CH2 CH2 CO2 H)] has an IC50 ([1]; Example 2, Table 7) of 2.96 µM and an IC50 ([3]; Example 4, Table 9) of 110 µM.
PQQ monomethyl ester gave an IC50 ([1]; Example 1, Table 6) of 0.0609 µM.
